The values below come from patent US7973029B2 (Gilead Sciences, Inc., priority 2007, dated 2011).

Values after ≈ are worked out from the molar mass of the structure shown. Read-outs that look alike come from different tables or passages of the source. Marks after values point to notes of the source that are not given here. Bounds are passed on as bounds.

Data set [1] concerns CF patients. As to conditions: cited from earlier work.
Data set [2] deals with PA. The note with it: cited from earlier work.
Data set [3] deals with Pseudomonas aeruginosa (PA) isolates. In words: Clinical Trial I: MIC for PA isolates. In kind it is cell-based. As to conditions: for MIC50 / MIC90 / MIC: Pseudomonas aeruginosa.
The test system is the same in data set [4]. The data set can be described thus: Clinical Trial II: MIC of aztreonam for PA isolates. Type of data set: cell-based.
The nature of data set [5]: Clinical Trial II: sputum and plasma aztreonam concentrations. In kind it is in vivo. The note with it: human, sputum, inhaled, 75 mg, sputum aztreonam concentration, median (range), 10 minutes postdose.
Where [6] appears, read: Colistin, N = 62, 80 BID/28 days.

For the molecule `NC[C@H]1O[C@H](O[C@H]2[C@H](O)[C@@H](O[C@H]3O[C@H](CO)[C@@H](O)[C@H](N)[C@H]3O)[C@H](N)C[C@@H]2N)[C@H](N)C[C@@H]1O` [tobramycin], in data set [1] (600 TID, N = 36), the “FEV1 Change (absolute change in FEV1 % predicted, comparison to control after 28 days of therapy)” value was 10%^a. Besides, in data set [2] (Tobramycin 600 TID, N = 36), the “PA Density Change (Log10)” value is recorded as −2.0 Log10. Besides, the “MIC50 and MIC90 of tobramycin for PA isolates, change” value in data set [3] (Days −28 to 56) is no more than 4 fold. Also, the MIC50 in data set [3] (isolates of AZLI-BID group, Day −28, read-out: MIC50 of tobramycin for all PA isolates) is 1 µg/mL (≈ 2.14 µM); in data set [3] (isolates of AZLI-Pooled group, Day −28, read-out: MIC50 of tobramycin for all PA isolates) it was 1 µg/mL (≈ 2.14 µM); in data set [3] (isolates of AZLI-TID group, Day −28, read-out: MIC50 of tobramycin for all PA isolates) it was 2 µg/mL (≈ 4.28 µM); in data set [3] (isolates of Placebo group, Day −28, read-out: MIC50 of tobramycin for all PA isolates), 2 µg/mL (≈ 4.28 µM). Moreover, the MIC90 in data set [3] (isolates of AZLI-BID group, Day −28, read-out: MIC90 of tobramycin for all PA isolates) is 16 µg/mL (≈ 34.2 µM); in data set [3] (isolates of AZLI-Pooled group, Day −28, read-out: MIC90 of tobramycin for all PA isolates) it was 32 µg/mL (≈ 68.4 µM); in data set [3] (isolates of AZLI-TID group, Day −28, read-out: MIC90 of tobramycin for all PA isolates), 64 µg/mL (≈ 137 µM); in data set [3] (isolates of Placebo group, Day −28, read-out: MIC90 of tobramycin for all PA isolates), 256 µg/mL (≈ 548 µM).
Turning to `C[C@H]1[C@H](NC(=O)/C(=N\OC(C)(C)C(=O)O)c2csc(N)n2)C(=O)N1S(=O)(=O)O` [aztreonam], the MIC50 was 4 µg/mL in data set [4] (read-out: MIC50 of aztreonam for all PA isolates, isolates of AZLI group, baseline); 2 µg/mL in data set [4] (read-out: MIC50 of aztreonam for all PA isolates, isolates of Placebo group, baseline); 2 µg/mL (≈ 4.59 µM) in data set [3] (0 h, read-out: MIC50 of aztreonam for all PA isolates, isolates of AZLI-BID group, Day 0); 2 µg/mL (≈ 4.59 µM) in data set [3] (0 h, read-out: MIC50 of aztreonam for all PA isolates, isolates of AZLI-Pooled group, Day 0); 2 µg/mL (≈ 4.59 µM) in data set [3] (0 h, read-out: MIC50 of aztreonam for all PA isolates, isolates of AZLI-TID group, Day 0); no more than 1 µg/mL in data set [3] (0 h, read-out: MIC50 of aztreonam for all PA isolates, isolates of Placebo group, Day 0). Further, the MIC90 in data set [4] (read-out: MIC90 of aztreonam for all PA isolates, isolates of AZLI group, baseline) came out at 128 µg/mL; in data set [4] (read-out: MIC90 of aztreonam for all PA isolates, isolates of Placebo group, baseline), 64 µg/mL; in data set [3] (0 h, read-out: MIC90 of aztreonam for all PA isolates, isolates of AZLI-BID group, Day 0), 64 µg/mL (≈ 147 µM); in data set [3] (0 h, read-out: MIC90 of aztreonam for all PA isolates, isolates of AZLI-Pooled group, Day 0), 32 µg/mL (≈ 73.5 µM); in data set [3] (0 h, read-out: MIC90 of aztreonam for all PA isolates, isolates of AZLI-TID group, Day 0), 32 µg/mL (≈ 73.5 µM); in data set [3] (0 h, read-out: MIC90 of aztreonam for all PA isolates, isolates of Placebo group, Day 0), 64 µg/mL (≈ 147 µM). Besides, the MIC was greater than 2050 µg/mL in data set [4] (read-out: Maximum MIC of aztreonam for all PA isolates, isolates of AZLI group, baseline); 256 µg/mL in data set [4] (read-out: Maximum MIC of aztreonam for all PA isolates, isolates of Placebo group, baseline); no more than 1 µg/mL in data set [4] (read-out: Minimum MIC of aztreonam for all PA isolates, isolates of Placebo group, baseline); greater than 2050 µg/mL in data set [3] (0 h, read-out: Maximum MIC of aztreonam for all PA isolates, isolates of AZLI-BID group, Day 0); greater than 2050 µg/mL in data set [3] (0 h, read-out: Maximum MIC of aztreonam for all PA isolates, isolates of AZLI-Pooled group, Day 0); 1020 µg/mL in data set [3] (0 h, read-out: Maximum MIC of aztreonam for all PA isolates, isolates of AZLI-TID group, Day 0). In addition, the minimal inhibitory concentration (MIC) in data set [3] (0 h, read-out: Maximum MIC of aztreonam for all PA isolates, isolates of Placebo group, Day 0) was 1020 µg/mL; in data set [3] (0 h, read-out: Minimum MIC of aztreonam for all PA isolates, isolates of AZLI-BID group, Day 0), no more than 1 µg/mL; in data set [3] (0 h, read-out: Minimum MIC of aztreonam for all PA isolates, isolates of AZLI-Pooled group, Day 0), no more than 1 µg/mL; in data set [3] (0 h, read-out: Minimum MIC of aztreonam for all PA isolates, isolates of AZLI-TID group, Day 0) it was no more than 1 µg/mL; in data set [3] (0 h, read-out: Minimum MIC of aztreonam for all PA isolates, isolates of Placebo group, Day 0), no more than 1 µg/mL. Moreover, the values for the concentration at 10 min in data set [5] (Day 0), in data set [5] (Day 14) and in data set [5] (Day 28) were 530000 ng/g, 677000 ng/g and 451000 ng/g, respectively.
For the molecule Colistin, the “FEV1 Change (relative change in FEV1 % predicted, comparison to control after 28 days of therapy)” value in data set [1] (setting [6]) is listed as 0%^b. In addition, in data set [2] (setting [6]), the “PA Density Change (Log10)” value was −0.6 Log10.

B1: Pulmozyme: Pulmozyme registration trial comparator (protein, UniProt P24855 23-282, looked up)
Deoxyribonuclease-1: LKIAAFNIQTFGETKMSNATLVSYIVQILSRYDIALVQEVRDSHLTAVGKLLDNLNQDAPDTYHYVVSEPLGRNSYKERYLFVYRPDQVSAVDSYYYDDGCEPCGNDTFNREPAIVRFFSRFTEVREFAIVPLHAAPGDAVAEIDALYDVYLDVQEKWGLEDVMLMGDFNAGCSYVRPSQWSSIRLWTSPTFQWLIPDSADTTATPTHCAYDRIVVAGMLLRGAVVPDSALPFNFQAAYGLSDQLAQAISDHYPVEVMLK
On to B1, for which the “FEV1 Change (percent change in FEV1 (L), comparison to control after 24 weeks of therapy)” value in data set [1] (2.5 mg BID/24 weeks) is 5.8 ± 0.7^c %; in data set [1] (2.5 mg TID/24 weeks), 5.6 ± 0.7^c %.
